Drawing on patent US20070134733A1, “Raman signature probes and their use in the detection and imaging of molecular processes and structures” (Parallax Biosystems, Inc., priority 2003, published 2007), this text covers EC50 for six compounds.

One may read the EC50 as the concentration giving half of the maximal effect. Higher therefore signals a need for much substance.

Molecules are shown by their SMILES.

In this assay the target is T1, NADH-dependent enoyl acyl carrier reductase (FabI) (Escherichia coli, UniProt P0AEK4).
T1 construct: made in house; host or cells: recombinant bacteria (strain from Dr. Charles Rock, St. Jude Children's Research Hospital)
T1 sequence (P0AEK4 whole entry): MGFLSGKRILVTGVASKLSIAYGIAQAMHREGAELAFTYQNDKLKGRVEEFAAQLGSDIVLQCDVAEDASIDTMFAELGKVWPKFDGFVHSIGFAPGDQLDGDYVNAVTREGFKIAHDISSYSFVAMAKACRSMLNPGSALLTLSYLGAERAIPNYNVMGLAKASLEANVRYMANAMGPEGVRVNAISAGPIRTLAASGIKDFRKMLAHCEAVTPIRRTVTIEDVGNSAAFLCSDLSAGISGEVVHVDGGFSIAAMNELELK
Put plainly: FabI enzyme inhibition assay (NADH consumption, absorbance at 340 nm). Conditions: purified HIS-tagged FabI enzyme, NADH and substrate (e.g. Malonyl CoA or Crotonyl CoA). In kind it is biochemical, bacteria. An excerpt: Prior to using the potential RSP compounds as probes to detect bacteria the modified compounds will be tested for their ability to inhibit FabI. As shown with numerous studies that have explored the structure activity relationship of other FabI inhibitor analogs, there is a good correlation between the ability of a compound to inhibit the enzyme and its affinity towards the enzyme (Seefeld et al., Bioorg. Med. Chem. Lett. 11 (2001) 2061-2065). Recombinant bacteria expressing a HIS-tagged FabI protein are available from Dr. Charles Rock at St. Jude Children's Research Hospital in Memphis Tenn. The overexpressed protein is readily purified as a bioactive enzyme using conventional Ni^2+ chromatographic methods (Heath & Rock, J. Biol. Chem. 270 (1995) 26538-26542). Enzyme assays will be performed as described by Bergler et al. (J. Biol. Chem. 269 (1994) 5493-5496). Briefly, purified HIS-tagged FabI enzyme is added to a reaction containing NADH and an appropriate substrate (e.g. Malonyl CoA or Crotonyl CoA). The reductase activity is assayed by monitoring the decrease in absorbance at 340 nm due to the consumption of NADH. The inhibitory activity of all RSPs will be compared with Compound 1.
`N#Cc1ccc(Cn2c3c(c4ccccc42)CCN(C(=O)c2ccc(Cl)cc2)C3)cc1` [Compound 1A]: a half-maximal response (EC50) required 2520 nM.

`CC#CCn1c2c(c3ccccc31)CCN(C(=O)c1ccc(Cl)cc1)C2` [Compound 1D] registered an EC50 of 6010 nM.

Compound `Nc1ccc(Cn2c3c(c4ccccc42)CCN(C(=O)c2ccc(O)cc2)C3)cc1` [Compound 1, reference compound] displayed an EC50 of 670 nM.

The compound `[2H]C([2H])([2H])C([2H])([2H])n1c2c(c3ccccc31)CCN(C(=O)c1ccc(Cl)cc1)C2` [Compound 1E] yielded an EC50 of 7830 nM.

With `[2H]c1c([2H])c([2H])c(C(=O)N2CCc3c(n(Cc4ccc(F)cc4)c4ccccc34)C2)c([2H])c1[2H]` [Compound 1B], the EC50 amounted to 1500 nM.

In turn, `N#Cc1ccc(Cn2c3c(c4ccccc42)CCN(C(=O)c2ccc(Br)cc2)C3)cc1` [Compound 1C] came in with an EC50 of 2530 nM.
